Values quoted from earlier work, collected in patent US7914812B2, “Wound care dressing and method using same” (priority 2004, dated 2011).

details: 25° C.

Solubility ww % (25° C.) | Molecule
72 ww % | OC[C@@H](O)[C@@H](O)[C@H](O)[C@@H](O)CO [Sorbitol]
60 ww % | OC[C@@H](O)[C@@H](O[C@H]1O[C@H](CO)[C@@H](O)[C@H](O)[C@H]1O)[C@H](O)[C@@H](O)CO [Maltitol]
28 ww % | Isomalt
18 ww % | OC[C@@H](O)[C@@H](O)[C@H](O)[C@H](O)CO [Mannitol]
36 ww % | OC[C@@H](O)[C@@H](O)CO [Erythritol]
66 ww % | OC[C@@H](O)[C@H](O)[C@@H](O)CO [Xylitol]
58 ww % | OC[C@@H](O)[C@@H](O[C@@H]1O[C@H](CO)[C@H](O)[C@H](O)[C@H]1O)[C@H](O)[C@@H](O)CO [Lactitol]

same assay, conditions: at about 37° C., i.e. body temperature; water

solubility | Molecule
about 78 grams per 100 grams of water | OC[C@H]1O[C@@](CO)(O[C@H]2O[C@H](CO)[C@@H](O)[C@H](O)[C@H]2O)[C@@H](O)[C@@H]1O [sucrose]
about 23 grams per 100 grams of water | OC[C@@H](O)[C@@H](O)[C@H](O)[C@H](O)CO [Mannitol]
